Experimental data published in patent publication US20250145565A1 (BATTERJEE MEDICAL COLLEGE, priority 2021, published 2025).
Like-named read-outs stand apart in the source and are kept apart here.

What was measured:
Type in all cases: biochemical
[1] = molecular target: human FAAH (hFAAH) (Homo sapiens (Human), UniProt O00519); assay: FAAH enzyme inhibition assay (Cayman kit, AMC-arachidonoyl amide); conditions: for IC50: Table II, average of at least two experiments, read-out: IC50 (μM) ± SE (hFAAH)
human FAAH (hFAAH), sequence (O00519 whole entry): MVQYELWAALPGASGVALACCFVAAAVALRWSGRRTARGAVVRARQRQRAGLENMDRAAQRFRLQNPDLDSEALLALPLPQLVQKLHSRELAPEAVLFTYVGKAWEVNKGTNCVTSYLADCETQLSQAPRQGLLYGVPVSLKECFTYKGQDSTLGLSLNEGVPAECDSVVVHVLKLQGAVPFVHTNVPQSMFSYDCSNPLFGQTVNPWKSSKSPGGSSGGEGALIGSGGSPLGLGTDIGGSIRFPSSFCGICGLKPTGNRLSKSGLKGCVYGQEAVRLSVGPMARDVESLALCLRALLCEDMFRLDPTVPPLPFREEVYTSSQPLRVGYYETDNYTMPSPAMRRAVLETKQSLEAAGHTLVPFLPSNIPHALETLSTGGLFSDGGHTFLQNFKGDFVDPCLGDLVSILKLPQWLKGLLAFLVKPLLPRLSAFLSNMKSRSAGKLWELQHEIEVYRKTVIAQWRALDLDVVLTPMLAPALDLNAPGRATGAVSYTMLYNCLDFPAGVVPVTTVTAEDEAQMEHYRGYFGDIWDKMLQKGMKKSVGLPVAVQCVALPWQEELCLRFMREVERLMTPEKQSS
Protocol: FAAH inhibition assay was performed using Fatty Acid Amide Hydrolase Inhibitor Screening Assay Kit (Item #10005196), Cayman (1180 E Ellsworth Rd Ann Arbor, MI, USA). […] Manufacturer's protocol was followed to perform the assay. The assay buffer (125 mM Tri-HCl with 1 mM EDTA, pH 9.0) was used to dilute the FAAH human recombinant enzyme. AMC-Arachidonoyl amide, at a concentration of 400 μM was then used as the FAAH substrate. Samples were mixed for 30 s and incubated at 37° C. for 30 min. The fluorescent by-product AMC (7-amino-4-methylcoumarin) released by the FAAH enzyme was detected and quantified at an excitation wavelength of 355 nm and emission wavelength of 460 nm.

[2] = molecular target: ALDH1a1 (Homo sapiens (Human), UniProt P00352); assay: ALDH assay (diaphorase/resazurin), ALDH1a1 inhibition
ALDH1a1, sequence (P00352 whole entry): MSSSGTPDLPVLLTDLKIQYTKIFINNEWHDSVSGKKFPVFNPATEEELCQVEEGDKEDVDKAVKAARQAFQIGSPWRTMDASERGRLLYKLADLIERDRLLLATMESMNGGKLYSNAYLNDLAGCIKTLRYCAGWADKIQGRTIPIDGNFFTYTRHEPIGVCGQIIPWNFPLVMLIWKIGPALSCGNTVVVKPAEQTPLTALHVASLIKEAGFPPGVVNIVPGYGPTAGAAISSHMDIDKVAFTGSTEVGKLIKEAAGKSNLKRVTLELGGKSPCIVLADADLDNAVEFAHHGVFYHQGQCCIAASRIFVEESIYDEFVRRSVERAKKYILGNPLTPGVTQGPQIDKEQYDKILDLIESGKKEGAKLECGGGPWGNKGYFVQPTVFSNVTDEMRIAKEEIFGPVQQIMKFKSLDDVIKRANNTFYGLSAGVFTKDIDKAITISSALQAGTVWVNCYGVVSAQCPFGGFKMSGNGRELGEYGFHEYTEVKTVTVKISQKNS
Text: (§1) ALDH catalyzes the oxidation of acetaldehyde to acetic acid while reducing NAD+ to NADH. The formation of NADH is fluorescently detected using diaphorase/resazurin system. Diaphorase utilizes NADH formed from ALDH reaction to produce the fluorescent molecule resorufin from resazurin. See Davis, M. I.; Shen, M.; Simeonov, A.; Hall, M. D., Diaphorase Coupling Protocols for Red-Shifting Dehydrogenase Assays.
(§2) The reagent ALDH1a1 is from R&D Systems (Minneapolis, MN). ALDH2 is from Prospect Bio (East Brunswick, NJ). Acetaldehyde is from Cayman Chemicals (Ann Arbor, MI). NAD^+, and Resazurin sodium salt are from Sigma (St. Louis, MO). Diaphorase is from Reaction Biology (Malvern PA). Zaba micro spin columns are from ThermoFisher scientific (Waltham, MA). […] Desalted samples from each enzyme were pooled together and placed in ice until use. Reaction buffer (50 mM sodium pyrophosphate buffer at pH 8.8, 0.01% Brij35) degassed using vacuum for 10 mins until no visible air bubbles were seen.
(§3) 5 μl of reaction buffer was delivered to ‘no enzyme’ background control wells. Test compounds were prepared in 100% DMSO by serial dilution in 100× of assay concentration. After adding the test compounds, reaction plate was centrifuged briefly in 1200 rpm, then incubated for 20 min at room temperature, to pre-incubate enzyme and compounds. […] Reaction plate was briefly centrifuged and sealed with a plastic film to limit evaporation. After incubation at room temperature for 60 min, 10 μl of detection reagent (15 μg/ml diaphorase, 30 μM resazurin prepared in the degassed reaction buffer) was added. Reaction plate was briefly centrifuged and incubated for 10 minutes at room temperature in the dark.

[3] = molecular target: ALDH2 (Homo sapiens (Human), UniProt P05091); assay: ALDH assay (diaphorase/resazurin), ALDH2 inhibition
ALDH2, sequence (P05091 18-517): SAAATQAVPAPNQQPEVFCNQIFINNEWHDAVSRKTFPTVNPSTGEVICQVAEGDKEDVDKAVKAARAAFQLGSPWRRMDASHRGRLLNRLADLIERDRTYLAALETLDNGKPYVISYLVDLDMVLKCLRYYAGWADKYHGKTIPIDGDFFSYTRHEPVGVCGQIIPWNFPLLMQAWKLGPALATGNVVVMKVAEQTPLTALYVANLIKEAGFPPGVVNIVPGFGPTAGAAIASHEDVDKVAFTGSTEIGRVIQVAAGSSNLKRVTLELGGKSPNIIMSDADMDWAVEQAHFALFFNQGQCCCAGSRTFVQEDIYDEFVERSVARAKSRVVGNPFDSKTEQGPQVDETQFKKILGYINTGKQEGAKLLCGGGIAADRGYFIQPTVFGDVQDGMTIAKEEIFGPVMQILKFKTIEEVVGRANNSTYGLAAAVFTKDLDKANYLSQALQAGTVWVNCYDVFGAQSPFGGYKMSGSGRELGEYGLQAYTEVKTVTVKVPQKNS
Text: as §1, §2, §3

[4] = molecular target: human MAGL (hMAGL) (Homo sapiens (Human), UniProt Q99685); assay: MAGL enzyme inhibition assay (4-nitrophenylacetate); conditions: for IC50: Table II, average of at least two experiments, read-out: IC50 (μM) ± SE (hMAGL); for decrease in inhibitory activity against MAGL: relative to disulfiram / unsubstituted analog
human MAGL (hMAGL), sequence (Q99685 whole entry): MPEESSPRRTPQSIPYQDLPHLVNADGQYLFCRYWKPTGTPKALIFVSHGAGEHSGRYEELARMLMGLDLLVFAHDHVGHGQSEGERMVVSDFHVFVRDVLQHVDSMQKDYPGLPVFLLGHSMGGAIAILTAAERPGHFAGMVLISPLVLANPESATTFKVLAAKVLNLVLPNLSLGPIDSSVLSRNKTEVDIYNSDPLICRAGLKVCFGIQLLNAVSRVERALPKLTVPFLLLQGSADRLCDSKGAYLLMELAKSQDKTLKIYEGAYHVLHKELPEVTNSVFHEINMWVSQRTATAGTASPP
Protocol: The plate was mixed for 30 s and incubated at room temperature for 30 min.

[5] = Table IA, mean of at least two independent experiments, read-out: IC50 (μM) ± SE (ALDH1a1)
[6] = Table IB, mean of at least two independent experiments, read-out: IC50 (μM) ± SE (ALDH2)
[7] = Table III, read-out: Aldh1a1 (IC50, μM) ± SE

## CCN(Cc1ccc(C(=O)O)cc1)C(=S)SSC(=S)N(CC)Cc1ccc(C(=O)O)cc1 [Compound I-2d]
[1]
  FAAH inhibitory activity (in words): devoid of anti-FAAH activity
[2]; [5]
  IC50: 2.96 ± 1.52 µM
[2]; relative to I-2a
  decrease in ALDH1a1 inhibitory activity: tenfold decrease
[3]; [6]
  IC50: 99.36 ± 0.64 µM
[4]
  IC50: 22.6 ± 16.8 µM
  decrease in inhibitory activity against MAGL: 20 fold

## CCN(CCO)C(=S)SSC(=S)N(CC)CCO [Compound I-2f, bis(N-hydroxyethylethylthiocarbamoyl)disulfide]
[1]
  IC50: 25.4 ± 3.26 µM
[2]; [5]
  IC50: 2.54 ± 1.15 µM
[3]; [6]
  IC50: 25.7 ± 12.3 µM
[4]
  IC50: 0.72 ± 0.2 µM

## CCN(CCC(=O)O)C(=S)SSC(=S)N(CC)CCC(=O)O [Compound I-2e, bis(N-carboxylethylethylthiocarbamoyl)disulfide]
[1]
  IC50: 12.8 ± 1.57 µM
[2]; [5]
  IC50: 0.15 ± 0.14 µM
[3]; [6]
  IC50: 0.85 ± 0.55 µM
[4]
  IC50: 0.87 ± 0.21 µM

## CCN(Cc1ccc(C(F)(F)F)cc1)C(=S)SSC(=S)N(CC)Cc1ccc(C(F)(F)F)cc1 [III-1n, bis(N-4-trifluoromethylbenzylethylthiocarbamoyl)disulphide]
[2]; Table III
  Aldh1a1 (IC50, μM) ± SE: No inhibititon
[3]; Table III
  Aldh2 (IC50, μM) ± SE: No inhibition

## CCN(Cc1ccco1)C(=S)SSC(=S)N(CC)Cc1ccco1 [III-2p, bis(N-(2-furylmethyl)ethylthiocarbamoyl)disulphide]
[2]; [7]
  IC50: 0.39 ± 0.27 µM
[3]; Table III, read-out: Aldh2 (IC50, μM) ± SE
  IC50: 200 ± 129 µM

## bis(N-4-ethoxycarbonylbenzylethylthiocarbamoyl)disulphide [II-2l]
[1]
  FAAH inhibitory activity (in words): devoid of anti-FAAH activity
[4]
  IC50: 5.03 ± 2.35 µM

## CCOCCNC(=S)SSC(=S)NCCOCC [Compound I-2m, reference compound]
[2]; [5]
  IC50: 0.04 ± 0.03 µM

## O=C(Oc1ccc([N+](=O)[O-])cc1)N1CCN(Cc2cccc(Oc3ccccc3)c2)CC1 [JZL-195, reference compound]
[1]
  IC50: 0.04 ± 0.02 µM

## NCCS [Compound 3, Cysteamine, reference compound]
[2]
  activity against ALDH1a1 (in words): none of them showed any activity
[3]
  ALDH2 inhibitory activity (in words): none of them showed any activity

## CC(C)CN(CC(C)C)C(=S)SSC(=S)N(CC(C)C)CC(C)C [Compound I-2j, reference compound]
[1]
  FAAH inhibitory activity (in words): no inhibition
[2]
  activity against ALDH1a1 (in words): complete loss of activity
[2]; [5]
  IC50: > 100 µM
[4]
  IC50: 13.4 ± 4.79 µM
  decrease in inhibitory activity against MAGL: up to 15 fold
[4]; dithiothreitol (10 mM)
  hydrolytic activity of inhibited MAGL upon addition of dithiothreitol: restored

## bis(N-4-hydroxybenzylethylthlocarbamoyl)disulfide [Compound I-2c]
[1]
  IC50: 38.2 ± 7.96 µM
[2]; [5]
  IC50: 0.21 ± 0.04 µM
[2]; addition of dithiothreitol
  catalytic activity of inhibited ALDH1a1 after addition of dithiothreitol: completely restored
[3]; [6]
  IC50: 10.9 ± 0.61 µM
[4]
  IC50: 3.71 ± 1.28 µM

## CCN(CC)C(=S)SSC(=S)N(CC)CC [Disulfiram, reference compound]
[1]; listed as II-2a
  IC50: 36.2 ± 11 µM
[4]
  IC50: 0.95 ± 0.26 µM

## CN(C)C(=S)SSC(=S)N(C)C [Compound I-2g, reference compound]
[2]; [5]
  IC50: 0.02 ± 0.01 µM
[3]; [6]
  IC50: 0.32 ± 0.04 µM

## NCCSSCCN [Compound 4, Cystamine, reference compound]
[2]
  activity against ALDH1a1 (in words): none of them showed any activity
[2]; [5]
  IC50: > 100 µM
[3]
  ALDH2 inhibitory activity (in words): none of them showed any activity

## CCN(Cc1ccc(OC)cc1)C(=S)SSC(=S)N(CC)Cc1ccc(OC)cc1
[2]; [7]
  IC50: 0.58 ± 0.41 µM
[3]; Table III
  Aldh2 (IC50, μM) ± SE: No inhibition

## CCOC(=O)CCN(CC)C(=S)SSC(=S)N(CC)CCC(=O)OCC [II-2g, bis(N-ethoxycarbonylethylethylthiocarbamoyl)disulphide]
[1]
  IC50: 10.1 ± 0.68 µM
[4]
  IC50: 3.53 ± 1.32 µM

## CCN(Cc1ccsc1)C(=S)SSC(=S)N(CC)Cc1ccsc1 [III-2r, bis(N-(3-thienylmethyl)ethylthiocarbamoyl)disulphide]
[2]; [7]
  IC50: 0.17 ± 0.1 µM
[3]; Table III
  Aldh2 (IC50, μM) ± SE: No inhibition

## CC(C)N(C(=S)SSC(=S)N(C(C)C)C(C)C)C(C)C [Compound I-2h, reference compound]
[2]; [5]
  IC50: 2.85 ± 1.08 µM
[3]; [6]
  IC50: > 100 µM
[4]
  IC50: 1.89 ± 0.37 µM

## CCN(Cc1ccncc1)C(=S)SSC(=S)N(CC)Cc1ccncc1 [III-2o, bis(N-(4-pyridylmethyl)ethylthiocarbamoyl) disulphide]
[2]; [7]
  IC50: 5.76 ± 4.01 µM
[3]; Table III
  Aldh2 (IC50, μM) ± SE: No inhibition

## CCN(Cc1cccs1)C(=S)SSC(=S)N(CC)Cc1cccs1 [III-2q, bis(N-(2-thienylmethyl)ethylthiocarbamoyl)disulphide]
[2]; [7]
  IC50: 0.39 ± 0.31 µM
[3]; Table III
  Aldh2 (IC50, μM) ± SE: No inhibition

## N-Acetyl-L-Cysteamine [Compound 5, reference compound]
[2]
  activity against ALDH1a1 (in words): none of them showed any activity
[3]
  ALDH2 inhibitory activity (in words): none of them showed any activity
